Measurements published in patent publication US9452988B2, “Bendamustine derivatives and methods of using same” (Ignyta, Inc., priority 2012, dated 2016).

Tests used:
[1] = system: H-460 (NSCLC); assay: MTS cell assay, H-460; format: cell-based, Human
Procedure: (§1) Human carcinoma cells (2,000 cells/well) were incubated with the desired concentration of the test molecule (0-200 μM) for 72 hours. The cells were then incubated with MTS solution (Promega) for 1-2 hours, and the compounds effects on cell proliferation was determined by measuring the absorbance at 490 nm. Cell growth was expressed as a percent of the appropriate control (placebo). […] All data reported was the mean±SE of three independent experiments.

[2] = system: MB-231 (HBC); assay: MTS cell assay, MB-231; format: cell-based, Human; settings: 72 hours
Procedure: Charles River Labs athymic nude mice bearing MDA-MB-231 breast carcinoma cell line subcutaneous xenografts (5×10^6 cells in matrigel) were sacrificed to make a tumor isolate. Using sterile instruments and working aseptically, the tumors were removed from the euthanized animal. The tumor was placed in a 50 mL sterile conical tube and 5 mL of trypsin was added. The tumor was cut into small pieces and incubated at 37° C. for 30 minutes. After incubation, a cell strainer was placed on a second, sterile, 50 mL conical tube and the contents of the first tube were placed in the cell strainer. The tissue was forced through the filter using the flat end of a syringe plunger. The cell strainer was washed with 5 mLs of media containing FBS. The cells were spun down and the supernatant was discarded. The cells were resuspended in 20 mLs of complete media containing P/S and placed in a 75 cm flask.
as §1

[3] = Rat plasma, blood and organ pharmacokinetics after bendamustine C12 ester 30 mg/kg i.v.; format: in vivo; settings: 1 mL/kg
Procedure: (§2) Plasma and other tissues were prepared for high performance liquid chromatography (HPLC)/mass spectrometric analysis according to a standard protocol following protein precipitation with acetonitrile containing an internal standard. The samples were then analyzed for both bendamustine HCl and bendamustine esters of the invention and alprenolol (internal standard) via HPLC coupled with tandem mass spectrometry. Tissue samples were homogenized in sodium phosphate buffer and the value obtained from the assay was multiplied by 3 to correct for dilution during processing.
(§3) Adult animals (Charles River, Kingston, N.Y.; n=3 or 4/time point) were used in all experiments. The mice or rats were not fasted overnight prior to IV dose administration via the lateral tail vein. IV doses were administered in a fixed dose volume of 100 μL in mice or a dose volume of 1 mL/kg in rats. The mice were sacrificed by decapitation and trunk blood was collected into heparinized tubes at the sampling times stipulated. For blood collection, each rat (unanesthetized) was placed in a clear Plexiglas® restraining tube, and blood samples (approximately 0.25 mL) were drawn from a lateral tail vein into heparinized collection tubes at the sampling times stipulated. (Note: No pre-dose samples were obtained.) The exception to this procedure was the last sampling time in which the rats were sacrificed by decapitation and trunk blood was obtained rather than blood via a tail vein. The blood samples were placed on wet ice until centrifuged to separate plasma. The plasma fraction was transferred into clean, dry tubes, frozen on dry ice and stored at approximately −20° C. pending analysis. Whole brains and other highly perfused organs (liver, lung, spleen, kidney and heart) were rapidly removed at the predetermined time points and frozen on dry ice. All tissue samples were also stored at approximately −20° C. pending analysis.
(§4) The plasma concentration data for all mice and rats were entered into Excel spreadsheets in preparation for pharmacokinetic analysis. Mean pharmacokinetic parameters were estimated by non-compartmental analysis (Gibaldi and Perrier 1982) of the plasma concentration versus time data using WinNonlin software (Professional Version 4.1, Pharsight Corporation, Palo Alto, Calif.). The terminal rate constant for elimination from plasma (β) was estimated by linear regression of the terminal portion of the semi-logarithmic plasma concentration versus time curve. The apparent terminal half-life (t1/2) was calculated as 0.693 divided by β. The area under the plasma concentration versus time curve from time zero to the time of the last measurable concentration (AUC0-t) after a single dose was determined by the linear trapezoidal rule. The area from zero to infinity (AUC0-∞) was calculated as the sum of AUC0-t and the area extrapolated from the last measurable concentration to infinity (Clast/β). Concentrations pre-dose were all assumed to be zero for the purpose of calculation of the AUC. Any concentration that was below the limit of quantification (BLQ) after the last quantifiable sampling time was considered to be an empty value for the purpose of calculation of the AUC; it was treated as zero for the calculation of the mean concentration for a given sampling time.

[4] = Rat plasma pharmacokinetics, solution formulations of C16, cyclohexyl and 5-decanyl esters, 3 mg-eq/kg i.v.; format: in vivo; settings: solution formulation 3 mg-eq/kg i.v.
Procedure: as §2, §3, §4

[5] = C12 ester Nanoparticle Formulation
[6] = Homo sapiens, NCI-H460, 72 hours

`CCCCCCCCOC(=O)CCCc1nc2cc(N(CCCl)CCCl)ccc2n1C` [—C8H17, 4-{5-[Bis-(chloroethyl)-amino]-1-methyl-1H-benzimidazol-2-yl}butyric aid octyl ester] showed an IC50 ([1]; 72 hours) of 49 µM.
With `CCCCCCCCCCCCOC(=O)CCCc1nc2cc(N(CCCl)CCCl)ccc2n1C` [Bendamustine C12 Ester, 4-{5-[Bis-(chloroethyl)-amino]-1-methyl-1H-benzimidazol-2-yl}butyric aid dodecyl ester] the IC50 [2] was 33.3 µM, the IC50 ([1]; 72 hours) was 28.8 µM and the “AUC0-t of C12 Ester, Blood” value ([3]; C12 ester Liquid Formulation) was 4424 ng·h/mL. For the same compound, the “AUC0-t of C12 Ester, Brain” value ([3]; C12 ester Liquid Formulation) was 299 ng·h/mL, the “AUC0-t of C12 Ester, Kidney” value ([3]; C12 ester Liquid Formulation) was 2383 ng·h/mL and the “AUC0-t of C12 Ester, Liver” value ([3]; C12 ester Liquid Formulation) was 2564 ng·h/mL. For the same compound, the “AUC0-t of C12 Ester, Lung” value ([3]; C12 ester Liquid Formulation) was 12619 ng·h/mL, the “AUC0-t of C12 Ester, Spleen” value ([3]; C12 ester Liquid Formulation) was 25874 ng·h/mL and the “AUC0-∞ of C12 Ester, Kidney” value ([3]; C12 ester Liquid Formulation) was 2605 ng·h/mL. For the same compound, the “AUC0-∞ of C12 Ester, Liver” value ([3]; C12 ester Liquid Formulation) was 2586 ng·h/mL, the “AUC0-∞ of C12 Ester, Lung” value ([3]; C12 ester Liquid Formulation) was 13246 ng·h/mL and the “AUC0-∞ of C12 Ester, Spleen” value ([3]; C12 ester Liquid Formulation) was 25927 ng·h/mL. The “t1/2 of C12 Ester, Kidney” value ([3]; C12 ester Liquid Formulation) was 5.3 h, the “t1/2 of C12 Ester, Liver” value ([3]; C12 ester Liquid Formulation) was 0.8 h and the “t1/2 of C12 Ester, Lung” value ([3]; C12 ester Liquid Formulation) was 7.6 h. For the same compound, the “t1/2 of C12 Ester, Spleen” value ([3]; C12 ester Liquid Formulation) was 3.1 h, the “AUC0-t of C12 Ester, Blood” value [3, 5] was 951 ng·h/mL and the “AUC0-t of C12 Ester, Brain” value [3, 5] was 149 ng·h/mL. The “AUC0-t of C12 Ester, Kidney” value [3, 5] was 1766 ng·h/mL, the “AUC0-t of C12 Ester, Liver” value [3, 5] was 13355 ng·h/mL and the “AUC0-t of C12 Ester, Lung” value [3, 5] was 28327 ng·h/mL. For the same compound, the “AUC0-t of C12 Ester, Spleen” value [3, 5] was 13111 ng·h/mL, the “AUC0-∞ of C12 Ester, Kidney” value [3, 5] was 1802 ng·h/mL and the “AUC0-∞ of C12 Ester, Liver” value [3, 5] was 13586 ng·h/mL. For the same compound, the “AUC0-∞ of C12 Ester, Lung” value [3, 5] was 32297 ng·h/mL, the “AUC0-∞ of C12 Ester, Spleen” value [3, 5] was 13578 ng·h/mL and the “t1/2 of C12 Ester, Kidney” value [3, 5] was 4.9 h. The “t1/2 of C12 Ester, Liver” value [3, 5] was 4.5 h, the “t1/2 of C12 Ester, Lung” value [3, 5] was 8.5 h and the “t1/2 of C12 Ester, Spleen” value [3, 5] was 5.4 h.
For `CCCCCC(CCCC)OC(=O)CCCc1nc2cc(N(CCCl)CCCl)ccc2n1C` (stereo not drawn) [5-decanyl ester, 4-{5-[Bis-(chloroethyl)-amino]-1-methyl-1H-benzimidazol-2-yl}butyric acid 5-decyl ester], the “Plasma levels of Ester” value [4] was “All < MQL”.
In the case of `CCCCCCCCCCCCCCCOC(=O)CCCc1nc2cc(N(CCCl)CCCl)ccc2n1C` [—C15H31, 4-{5-[Bis-(chloroethyl)-amino]-1-methyl-1H-benzimidazol-2-yl}butyric acid pentadecyl ester], the IC50 ([2]; Homo sapiens) is reported as > 200 µM and the IC50 [1, 6] is reported as > 200 µM.
Compound `CCCCCCCCCCOC(=O)CCCc1nc2cc(N(CCCl)CCCl)ccc2n1C` [—C10H21, 4-{5-[Bis-(chloroethyl)-amino]-1-methyl-1H-benzimidazol-2-yl}butyric acid decyl ester] has an IC50 ([2]; Homo sapiens) of 38.9 µM and an IC50 [1, 6] of 23.8 µM.
In the case of `Cn1c(CCCC(=O)OC2CCCCC2)nc2cc(N(CCCl)CCCl)ccc21` [Cy-hexyl bendamustine ester, 4-{5-[Bis-(chloroethyl)-amino]-1-methyl-1H-benzimidazol-2-yl}butyric acid cyclohexyl ester], the “Plasma levels of Ester” value [4] is reported as “All < MQL”.
Compound `CCCCCCOC(=O)CCCc1nc2cc(N(CCCl)CCCl)ccc2n1C` [—C6H13, 4-{5-[Bis-(chloroethyl)-amino]-1-methyl-1H-benzimidazol-2-yl}butyric acid hexyl ester] has an IC50 ([2]; Homo sapiens) of 43.7 µM and an IC50 [1, 6] of 7.4 µM.
With `CCCCCCCCCCCCCCCCOC(=O)CCCc1nc2cc(N(CCCl)CCCl)ccc2n1C` [C16 bendamustine ester, 4-{5-[Bis-(chloroethyl)-amino]-1-methyl-1H-benzimidazol-2-yl}butyric acid hexadecyl ester] the IC50 ([2]; Homo sapiens) was > 200 µM, the IC50 [1, 6] was 77.8 µM and the AUC(0-t) ([4]; plasma, iv, 3 mg/kg, Mean n = 3, read-out: AUC0-t of Ester in plasma) was 1210 ng·h/mL. For the same compound, the AUC(0-inf) ([4]; plasma, iv, 3 mg/kg, Mean n = 3, read-out: AUC0-∞ of Ester in plasma) was 1210 ng·h/mL, the clearance ([4]; plasma, iv, 3 mg/kg, Mean n = 3, read-out: CL of Ester) was 41 mL/min/kg and the Vd ([4]; plasma, iv, 3 mg/kg, Mean n = 3, read-out: Vd of Ester) was 1 L/kg. The half-life ([4]; plasma, iv, 3 mg/kg, Mean n = 3, read-out: t1/2 of Ester in plasma (converted)) was 0.28 h.
With `CCCCOC(=O)CCCc1nc2cc(N(CCCl)CCCl)ccc2n1C` [—C4H9, 4-{5-[Bis-(chloroethyl)-amino]-1-methyl-1H-benzimidazol-2-yl}butyric acid butyl ester] the IC50 ([2]; Homo sapiens) was 13.3 µM and the IC50 [1, 6] was 15.7 µM.
